Experimental data: the NIST ThermoML archive (doi:10.1016/j.jct.2012.12.014)

Experiment: mn = molality of the nth substance listed, in mol/kg
Conditions: 298.15 K, 101 kPa, Liquid, Vibrating tube method

Nc1cc[nH]c(=O)n1 [4-amino-2-hydroxypyrimidine] + O
Conditions | mass density [kg/m3]
m1 = 0.02193 | 997.872
m1 = 0.02698 | 998.062
m1 = 0.03192 | 998.246
m1 = 0.03702 | 998.438
m1 = 0.04187 | 998.618
m1 = 0.04604 | 998.777
m1 = 0.05099 | 998.96
m1 = 0.05598 | 999.144
m1 = 0.06284 | 999.402
